Source: PubChem BioAssay AID1902 (Broad Institute, 2009)
Calls of active or inactive are those of the source.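 How the source made its calls: active means EC50 no more than a set limit of log units above the highest dose; inactive means the rest.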

Each compound was assayed against S. pyogenes SKKanGAS, kanamycin survival, BacTiterGlo, 6 h (assay: SKKanGAS survival reduction under kanamycin, dose response, streptokinase promoter inhibitor project, SKKanGAS strain, luminescence, dose confirmation (AID 1902);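 further: lower survival reflects blocked streptokinase promoter driving kanamycin resistance gene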).

Row | Compound | EC50
1 | O=C(COc1ccc([N+](=O)[O-])cc1)Nc1nc(-c2ccccn2)cs1 | 3.68 µM
2 | CCCCCCCCCCC(=O)NNC(=O)c1c(O)c2ccccc2n(CC)c1=O | 0.185 µM
3 | Cc1ccc(OP(=O)(Nc2cccc(C)c2)Oc2ccc(C)cc2)cc1 | 9.09 µM
4 | COc1cc([N+](=O)[O-])cc(/C=N/NC(=O)c2ccc(C)nc2)c1O | 2.61 µM
5 | Cc1ccc(O)c(C(=O)CC(=O)c2ccccc2Cl)c1 | 3.52 µM
6 | N#CC(C#N)=NNc1ccc([N+](=O)[O-])cc1 | 3.72 µM
7 | COc1cc(F)ccc1CN1CCC(n2nccc2NC(=O)C2CCOC2)CC1 (stereo not drawn) | > 15 µM (inactive)
8 | CCCN(CC1CC1)c1nc(C)nc(Nc2c(Cl)cc(Cl)cc2Cl)c1Cl | 1.26 µM
9 | CC1(C)OC(C(O)(c2ccccc2)c2ccccc2)[C@@H](C(O)(c2ccccc2)c2ccccc2)O1 (stereo partly drawn) | 3.36 µM
10 | C=CCn1c(SCC(=O)/C(C#N)=C(\C)N)nc2sc(C)c(C)c2c1=O | 5.25 µM
11 | Cc1nn(CC(O)CN2c3ccccc3Sc3ccccc32)c(C)c1Br (stereo not drawn) | 2.15 µM
12 | CC(C)(C)c1ccc(C(=O)N2CCN(C(=O)c3ccco3)CC2)cc1 | > 15 µM (inactive)
13 | O=C(Nc1cccc(S(=O)(=O)Nc2ccc(Cl)cc2)c1)c1cc2c(s1)CCCC2 | 1.3 µM
14 | O=C(CSc1nnc(NC(=O)C2CC(=O)N(c3ccc(F)cc3)C2)s1)NCc1ccco1 (stereo not drawn) | > 15 µM (inactive)
15 | CSc1nc(Oc2ccc3ccccc3c2)c2sccc2n1 | 7.58 µM
16 | NS(=O)(=O)c1ccc(N2N=C(c3ccccc3)CC2c2ccc(F)cc2)cc1 (stereo not drawn) | 5.28 µM
17 | COc1ccc(NC(=O)c2cc3cccc(OC)c3oc2=Nc2ccc(C(=O)O)cc2)cc1OC | 2.1 µM
18 | O=C(NC(NC(=S)Nc1ccc(Cl)c(Cl)c1)C(Cl)(Cl)Cl)c1ccco1 (stereo not drawn) | 3.41 µM
19 | CC(C)(C)c1ccc(C(=O)N/N=C/c2ccccn2)cc1 | 3.3 µM
20 | CC1CCC(C(=O)c2c(O)c3ccccc3oc2=O)CC1 (stereo not drawn) | 5.13 µM
21 | COc1ccc(Cn2c(SCc3ccc(C)cc3)nc3cc(OC)c(OC)cc3c2=N)cc1Cl | 2.65 µM
22 | O=C(Nc1nnc(-c2ccccc2Cl)o1)c1ccc(S(=O)(=O)N2CCCCCC2)cc1 | 0.264 µM
23 | CC(C)=CCc1cc([C@@H]2CC(=O)c3ccc(O)c(CC=C(C)C)c3O2)ccc1O | 3.63 µM
24 | CC1(C(=O)OCC(=O)Nc2nc(-c3ccc(F)c(F)c3)cs2)CC1(Cl)Cl (stereo not drawn) | 6.72 µM
25 | CC(C)(C)c1ccc(C(=O)NCc2nnc(SCC(=O)NC3CCCC3)o2)cc1 | > 15 µM (inactive)
26 | CCc1ccc(/C=C2\SC(=S)N(CCCC(=O)Nc3ccc(C(=O)O)cc3)C2=O)cc1 | 7.83 µM
27 | Cc1ccc(-c2nc3c(Cl)cc(Cl)cc3c(=O)n2O)cc1 | 0.808 µM

Row | Compound | EC50
28 | Cc1nc(-c2ccc(S(=O)(=O)Nc3ccc(Br)cc3Cl)s2)cs1 | 5.14 µM
29 | S=C(NCc1cccs1)Nc1cc(Cl)cc(Cl)c1 | 7.18 µM
30 | COc1ccc(C(=O)c2coc3c2C(=O)C(=O)c2ccccc2-3)cc1 | 5.65 µM
31 | O=[N+]([O-])c1cc(S(=O)(=O)Nc2cccc(Cl)c2)ccc1N=Nc1c(O)[nH]c2ccccc12 | 3.61 µM
32 | CC(=O)Oc1ccccc1C1=NN(C(=O)/C=C/c2ccccc2)C(c2ccccc2)C1 (stereo not drawn) | 5.15 µM
33 | CC1=NN(c2ccc([N+](=O)[O-])cc2)C(=O)/C1=C\N(C)C | 7.94 µM
34 | C[C@H](CCC(=O)NCC(=O)O)[C@H]1CC[C@H]2C3[C@H](O)C[C@@H]4C[C@H](O)CC[C@]4(C)[C@H]3C[C@H](O)[C@]12C (stereo partly drawn) | > 15 µM (inactive)
35 | CCC1(C)Cc2ccccc2-c2c1c(=O)n(Cc1ccccc1)c1nnnn21 (stereo not drawn) | 1.51 µM
36 | CC1Oc2cc3c(-c4c(O)cc(O)c5c(O)c6c(cc45)OC(C)C(C)C6=O)c(O)cc(O)c3c(O)c2C(=O)C1C (stereo not drawn) | 0.319 µM
37 | CC(C)C[C@H](NC(=O)c1nc[nH]c1C(=O)NC1CCN(C(=O)OC(C)(C)C)CC1)C(=O)OCc1ccccc1 | 5.47 µM
38 | CC(=O)c1cccc(OC(=O)c2ccc3c(=O)n4c(nc3c2)CCC4)c1 | 13.7 µM
39 | CCN(CC)S(=O)(=O)c1cccc(C(=O)Nc2nc3cc4c(cc3s2)OCCO4)c1 | 0.976 µM
40 | Cc1c(NCc2cc(Cl)cc(Cl)c2O)c(=O)n(-c2ccccc2)n1C | 3.39 µM
41 | COc1cc(Cc2cc(N)nc(N)n2)cc(OC)c1OC | 4.31 µM
42 | O=C1N/C(=N\N=C\c2cccs2)SC1Cc1ccc(Cl)c(Cl)c1 (stereo not drawn) | 11.4 µM
43 | Nc1nc(Nc2ccccc2)nc(NC2CCCCC2)c1[N+](=O)[O-] | 5.57 µM
44 | CCc1ccc(-c2cc(C(=O)N/N=C/c3c[nH]c4ccccc34)[nH]n2)cc1 | 5.96 µM
45 | CCCCCCSc1cc(-c2nc3cnccn3c2NCc2ccccc2)ccc1OC | 3.61 µM
46 | C/C(=N\NC(=O)COc1ccccc1-c1ccccc1)c1ccc(O)cc1O | 3.89 µM
47 | Cc1ccc(NC(=O)NCc2ccccn2)cc1Cl | > 15 µM (inactive)
48 | O=C1C=CC(=O)N1CCNc1ncc(C(F)(F)F)cc1Cl | 10.4 µM
49 | COC(=O)c1ccc(C(=O)OC)c(NC(=O)CN(C)Cc2cccc(Cl)c2Cl)c1 | 7.7 µM
50 | Cc1nc(Nc2cnc(/C=C/c3cc(C(=O)Nc4cccc(C(F)(F)F)c4)ccc3C)cn2)cc(N2CCNCC2)n1 | 6.36 µM
51 | CCOC(=O)c1c(NC(=S)N2CCN(C)CC2)sc(C)c1-c1ccccc1 | 6.51 µM
52 | COc1cccc(-c2nn(C)c3sc(C(=O)Nc4ccc5c(c4)OCCO5)cc23)c1 | 3.65 µM
53 | O=c1c2cn[nH]c2nc(SCc2c(F)cccc2F)n1-c1ccc(Cl)cc1 | 11.1 µM
